# Measurements taken from patent US12029747B2, “Use of baicalin in preparation of drug for treating tumor irresponsive to immune checkpoint inhibitors (ICIs)/undergoing hyperprogression” (BEIJING FRIENDSHIP HOSPITAL, CAPITAL MEDICAL UNIVERSITY, priority 2022, dated 2024).
# “Also recorded” adds a separate entry of the source.
# Assays:
# [1] = system: Foxp3^+Treg cells; test: Detection of Foxp3+Treg cells in a tumor tissue by FCM (NR-FMT LLC-bearing mice); format: in vivo, C57BL/6J mice; conditions: flow cytometry of tumor tissue
# [2] = Adverse reactions in treated tumor-bearing mice; format: in vivo; conditions: tumor-bearing mice irresponsive to ICIs
# Description: (§1) During administration, a body weight of mice was monitored every 3 days, and a tumor volume was measured.
# [3] = system: Lewis lung carcinoma (LLC); test: Therapeutic effect in PD-1 mAb-irresponsive (NR-FMT) LLC-bearing mice: tumor volume and weight; format: in vivo, C57BL/6J mice; conditions: compared with NR-Control group, HQG intragastric daily, PD-1 mAb i.p. once every 3 days
# Description: Pseudo-germ-free mouse modeling: Mice were treated with broad-spectrum antibiotics to construct pseudo-germ-free mouse models. 36 female C57BL/6J mice at 5 weeks (experimental animal license No.: SCXK (Beijing) 2019-0009) were purchased from Beijing Vital River Laboratory Animal Technology Co., Ltd. The mice were raised under the following conditions: cleanliness: SPF level; room temperature: 20° C. to 22° C.; humidity: 60±5%; 12 h light/12 h dark alternating cycle; and free eating and drinking. All animal protocols in this experiment were approved by the Beijing MaideiKangna Animal Ethics Committee, and animal experimental operations were conducted under the guidance of the Laboratory Animal Protection Association.
# After the mice were raised adaptively for one week, the mice were intragastrically administered daily with 100 μL of ABT for consecutive 3 days. […]
# Subcutaneous inoculation of LLC cells: An LLC cell suspension with a concentration of about 1×10^7 cells/mL was inoculated at a right axilla of a fecal bacteria-transplanted mouse with an inoculum size of 0.2 mL/mouse. The longest and shortest diameters of a tumor were measured by a vernier caliper, and a volume of the tumor=½ longest diameter×shortest diameter^2. […]
# as §1
structure (smiles),measurement,setting,value
"O=C(O)[C@H]1O[C@@H](Oc2cc3oc(-c4ccccc4)cc(=O)c3c(O)c2O)[C@H](O)[C@@H](O)[C@@H]1O [HQG, baicalin]",number of Foxp3+Treg cells in a tumor,[1],not reduced
same,adverse reactions,[2],no significant adverse reactions
same,tumor volume,[3],no significant difference; also recorded: not reduced
same,tumor weight,[3],no significant difference; also recorded: not reduced
